Test results as given in patent US20260115162A1, “COMPOSITION OR ASSOCIATION OF COMPOUNDS PREFERABLY FOR USE IN THE TREATMENT OF NERVOUS DISEASES IN PARTICULAR NEURODEGENERATIVE DISEASES, METHOD FOR THE PREPARATION OF SUCH COMPOSITION OR ASSOCIATION OF COMPOUNDS AND USES THEREOF” (PHARMACEUTICA SAN MARCO S.R.L., priority 2022, published 2026).
“Also recorded” adds a separate entry of the source. Read-outs that look alike come from different tables or passages of the source.

Experiments:
glutamate (GLU) = assay: Glutamate levels in mice treated with Aβ icv (FIG. 7); type: in vivo; settings: after 7 days
Method: (§1) The Aβ1-42, obtained from Tocris (Bristol, UK), was dissolved in sterile double-distilled pyrogenic-free water, as vehicle, to obtain a final concentration 4 μM [Colaianna M et al. 2010]. Mice were anesthetized with a solution (0.85 in ml/kg, i.p.), containing ketamine (Sigma Aldrich, Milan, Italy, 100 mg/10 ml), xylazine (Sigma Aldrich, Milan, Italy, 100 mg/10 ml) and acepromazine (prequillant, ATI Azienda Terapeutica Veterinaria Srl, 10 mg/10 ml) dissolved in saline solution. Animals were secured in a stereotaxic frame (David Kopf Instruments, Tujunga, CA, USA) and the peptide injection was accomplished in the lateral ventricle of mice at the following coordinates: AP=−0.2, ML=+1 e DV=2 relative to bregma, according to the atlas of Paxinos and Franklin [Paxinos G and Franklin K B J 2019]. […] At the time of dissection, the correct needle track was assessed. […]
(§2) 5-HT, noradrenaline (NA), and KYN levels were measured in the PFC and HIPP of mice by HPLC coupled with an electrochemical detector (Ultimate ECD, Thermo Scientific Dionex, Milan, Italy) as already reported [Francavilla M et al. 2012, Morgese M G et al. 2016]. […] GLU concentrations were determined by HPLC coupled with fluorescence detection (emission length 460 nm; excitation length 340 nm), as previously published [Francavilla M et al. 2012]. […]

CD11b = CD11b protein levels in mice treated with Aβ icv, Western blotting (FIG. 8); type: in vivo; settings: PFC and HIPP, HA4 0.2 mg/mouse
Method: (§4) The total amount of proteins was measured in homogenates by using Pierce BCA Assay (Thermo Fisher Scientific, Cleveland, OH, USA). […] After HRP-conjugated specific antibody incubation, ECL reagent (Bio-Rad Laboratories Inc., Segrate (MI), Italy) was added to the immune complex and chemiluminescence was detected by ChemiDoc MP system (Bio-Rad Laboratories Inc., Segrate (MI), Italy). Optical densities of the bands were measured using Image J software (http://rsb.info.nih.gov/ij/ accessed on 15 Mar. 2021) and normalized against bands relative to -actin (1:5,000, Abcam, Cambridge, UK).

intact mice = assay: Behavioral tests on intact animals (open field, freezing); type: in vivo; settings: for effect in behavioral tests, individually: mouse, in vivo; for lowest dose showing antidepressant effects: intact mice, preliminary experiments (unpublished observations)
Method: The trials were performed at the Department of Clinical and Experimental Medicine of the University of Foggia according to the following rationale. • 1. In the present mouse model of beta-amyloid toxicity, using validated tests in mice, we evaluated the behaviors: • a. antidepressant: Tail Suspension Test (TST); Forced Swimming Test (FST); Splash Test (ST) with latency time (sec) and self-care (sec) measurement. • b. antianxiety: Open Field Test with measurement of distance traveled (m), time spent in the wall (sec), time spent in the center (sec), center entries (n); Freezing Test (sec). • c. on memory, learning, coordination of motor skills, fear conditioning: Rotarod Test with measure of Latency to Fall, repeated after training to evaluate motor learning. • 2. We tested the protective effects with the following procedure: • a. individually: βCP, FE, βBA, DHA and HA4; • b. in association with pairs: βCP+HA4, FE+HA4, βBA+HA4, FE+βCP, βBA+FE, βBA+βCP. • c. in association, all four together: βCP+FE+βBA+HA4 • d. versus control (SHAM), • e. using the mouse model of an Aβ-induced depressive phenotype. • 3. These behavioral tests were integrated with serotonin, dopamine, noradrenaline and their metabolites prefrontal cortex and hippocampus measurement. • 4. Furthermore, we evaluated the cortical and hippocampal glutamate (GLU) levels in mice treated with AP and subsequently we tested the ability of βCP, FE, βBA and HA4, to modulate this neurochemical parameter.
βCP, FE e βBA (Merck, Cayman Chemical Company) was dissolved in sunflower oil, this vehicle was chosen in order to maintain a better tasting and higher density of the final solution thus reducing reflux through the digestive tract.
(§3) Ten μl of the solution (or vehicle alone) were administered sublingually to mice. Brain βCP, FE e βBA were quantified in a separate subset of mice at 5, 15 and 30 min after their administration.
Open Field Test. Mice were placed in an open field arena and allowed to explore for 30 min [Lama A et al. 2021]. After each trial, the arena floor was cleaned with 70% ethanol to avoid inter-assay bias. The movements of mice were video recorded and analyzed by ANY-maze tracking software (Ugo Basile-Varese, Gemonio, Italy). Locomotion was evaluated through total crossing measurements.

kynurenine (KYN) = assay: Kynurenine levels in mice treated with Aβ icv (FIG. 6); type: in vivo; settings: prefrontal cortex and hippocampus, HA4 0.2 mg/mouse
Method: as §1, §2

GFAP = GFAP protein levels in mice treated with Aβ icv, Western blotting (FIG. 9); type: in vivo; settings: PFC and HIPP, HA4 0.2 mg/mouse
Method: as §4

[1] = cited from earlier work
dopamine (DA) = assay: Dopamine (DA) levels in Aβ icv-treated mice (FIG. 5c); type: in vivo; settings: HIPP
[2] = in vivo; cited from earlier work
mice treated with Aβ icv = assay: Splash test in SHAM mice and mice treated with Aβ icv (FIG. 4); type: in vivo; settings: after 7 days, HA4 200 μg, βCP 50 μg, βBA 100 μg, FE 50 μg sublingually
Method: The Aβ1-42, obtained from Tocris (Bristol, UK), was dissolved in sterile double-distilled pyrogenic-free water, as vehicle, to obtain a final concentration 4 μM [Colaianna M et al. 2010]. Mice were anesthetized with a solution (0.85 in ml/kg, i.p.), containing ketamine (Sigma Aldrich, Milan, Italy, 100 mg/10 ml), xylazine (Sigma Aldrich, Milan, Italy, 100 mg/10 ml) and acepromazine (prequillant, ATI Azienda Terapeutica Veterinaria Srl, 10 mg/10 ml) dissolved in saline solution. […] At the time of dissection, the correct needle track was assessed. […]
as §3
All behavioral experiments were conducted at 5 or 30 min after sublingual administrations of βBA or vehicle in mice treated with SHAM or AP. Based on the observed behavioral results, neurochemical and biochemical quantifications were performed 30 min after administration of βCP, FE, and βBA or vehicle in SHAM- or Aβ-treated mice.
Splash test. […] The test was videotaped and later an observer, blind to the trial, scored for latency to the first grooming event and duration of self-care behavior during the period of the test (5 min).

[3] = cited from earlier work; remark: listed apart in the source
[4] = mice; cited from earlier work
[5] = Weber C C et al. 2006; cited from earlier work
[6] = cited from earlier work; remark: listed apart in the source
[7] = cited from earlier work; remark: listed apart in the source
[8] = Plasma and brain levels of βBA and AKBA via os in mice (Gerbeth K et al. 2013); type: in vivo
From the text: βBA appears not to undergo blood-brain barrier. According to the data of Gerbeth K et al. 2013, brain levels of AKBA were very low, resulting 0.4 per AKBA in the brain/plasma ratio (but 0.81 according to Weber C C et al. 2006). In contrast, the § BA concentration in the brain was even higher than that found in the blood with 32% increase (See Table 1).

[9] = healthy volunteers, via os, cited from earlier work
[10] = Pharmacokinetics of βBA and AKBA via os in healthy volunteers, fasted and hyperlipidic meal (Sterk V et al. 2004); type: in vivo, humans; settings: healthy volunteers
From the text: Indeed, βBA has a concentration in the blood: • at least 6 times higher than AKBA both in the fasting condition and with a hyperlipidic meal; • increased by 6 times after hyperlipidic meal so that the plasma/os ratio passes from 0.09 to 0.55.

[11] = mice, cited from earlier work
[12] = intact animals, hyaluronic acid only (FIG. 3)

With CC(=O)N[C@H]1[C@H](O[C@H]2[C@H](O)[C@@H](O)[C@H](O[C@H]3[C@H](O)[C@@H](CO)OC(O)[C@@H]3NC(C)=O)O[C@@H]2C(=O)O)O[C@H](CO)[C@@H](O)[C@@H]1O[C@@H]1O[C@H](C(=O)O)[C@@H](O)[C@H](O)[C@H]1O (stereo partly shown) [HA4, hyaluronic acid HA4 tetrasaccharide] the Glutamate levels (glutamate (GLU)) was “increase in glutamate”, the CD11b protein levels (CD11b) was “Significant reduction of CD11b in both PFC and HIPP” and the freezing (intact mice; [12]) was “clear anxiolytic and antidepressant effect”. For the same molecule, the locomotor activity (intact mice; [12]) was “does not create deficits in the animal's locomotor activity”, the “effect in behavioral tests, individually” value (intact mice) was “antidepressant and anxiolytic effect” and the Kynurenine levels (kynurenine (KYN)) was “significant reduction”. For the same molecule, the GFAP protein levels (GFAP) was “significant reduction; also recorded: removes GFAP alterations in both PFC and HIPP”.
For C=C1CC/C=C(\C)CC[C@@H]2[C@@H]1CC2(C)C [βCP, β-caryophyllene], the pathological changes ([1]; mice, 100 mg/kg i.p.) is listed as “no evidence of pathological changes”, the LD50 ([1]; mouse, in vivo, ip) is listed as 316 mg/kg and the “Dopamine (DA) levels” value (dopamine (DA)) is listed as “increase in dopaminergic activity in HIPP”. For the same molecule, the “toxic dose (category 5 substance, OECD guidelines)” value [2] was “greater than 2,000 mg/kg”, the “lowest dose showing antidepressant effects” value (intact mice) was 5 mg/kg and the “effect in behavioral tests, individually” value (intact mice) was “antidepressant and anxiolytic effect”. For the same molecule, the “Splash test latency time (antidepressant effect)” value (mice treated with Aβ icv) was “antidepressant effect”.
In the case of CC/C=C\C/C=C\C/C=C\C/C=C\C/C=C\C/C=C\CCC(=O)O [DHA, docosahexaenoic acid], the harmless dose ([3]; adult humans) is given as “at least 7.5 g/day”, the safe dose ([3]; children) is given as “at least 315 mg/day” and the safe dose [4] is given as ≤ 3.2 g/kg/day.
In the case of CC(=O)O[C@@H]1CC[C@@]2(C)[C@@H](CC[C@]3(C)[C@@H]2C(=O)C=C2[C@@H]4[C@@H](C)[C@H](C)CC[C@]4(C)CC[C@]23C)[C@@]1(C)C(=O)O [AKBA, acetyl-11-keto-beta-boswellic acid], the brain/plasma ratio [5] is given as 0.81, the brain/plasma ratio ([6]; Gerbeth K et al. 2013) is given as 0.4 and the “reduction of blood concentration compared to the dose introduced orally” value ([6]; mice, via os, intestinal mucosa to blood) is given as 80 times. For the same molecule, the “concentration in the brain” value ([6]; mice, via os) was 37.5 ng/g o ng/ml, the “concentration in the plasma” value ([6]; mice, via os) was 93 ng/g o ng/ml and the “reduction of concentration when crossing the blood-brain barrier” value ([6]; mice) was “more than twice”. For the same molecule, the blood concentration ([7]; 80 mg AKBA to 13 patients, found in only one of them) was 15.5 ng/mL, the “concentration in the plasma” value ([7]; patients, via os) was 0-15 ng/g o ng/ml and the Δos/brain [8] was 204. The Δos/plasma [8] was 82, the Δplasma/brain [8] was 2.5 and the “concentration in the plasma” value ([9]; fasted conditions) was 6 fasted ng/g o ng/ml. The “concentration in the plasma” value ([9]; hyperlipidic fed conditions) was 28 hyperlipidic ng/g o ng/ml, the Δos/plasma ([10]; fasted conditions) was 68 fasted and the Δos/plasma ([10]; hyperlipidic fed conditions) was 15 hyperlipidic.
For Hyaluronic acid, the LD50 ([11]; intraperitoneum) is listed as 1,500 mg/kg, the LD50 ([11]; subcutaneous) is listed as > 4,000 mg/kg and the LD50 ([11]; via os) is listed as > 2,400 mg/kg.
For CC1=CC=C[C@]2(C)Cc3occ(C)c3C[C@@H]12 [FE, furanoeudesma-1,3-diene], the “lowest dose showing antidepressant effects” value (intact mice) was 5 mg/kg and the “effect in behavioral tests, individually” value (intact mice) was “antidepressant and anxiolytic effect”.
